Experiments:
[1] = test system: Pseudomonas aeruginosa PAO1 fabI mutant biofilms; assay: MBEC biofilm killing assay (BacTiter-Glo), fabI mutants; format: cell-based; conditions: triclosan 100 μM alone; 6 hours treatment
Description: (§1) The MBEC™ Assay is a high throughput screening assay that allows testing of the efficacy of antimicrobials against biofilms. The MBEC™ Assay's Biofilm Inoculator (referred above as “the lid”) consists of a plastic lid with 96 pegs and a corresponding base with 96 individual wells. Biofilms are grown on the pegs under batch conditions (no flow of nutrients into or out of an individual well) with gentle mixing. The established biofilm is then transferred to a new 96 well plate for antimicrobial efficacy testing. The assay design allows for the evaluation of different of microorganisms, simultaneous testing of multiple biocides at multiple concentrations with replicate samples, making it an efficient screening tool. (Innovotech website http://www.innovotech.ca/products_mbec.php)) […]
(§2) Two milliliter overnight cultures of Pseudomonas aeruginosa fabI mutants were grown in MHII medium shaking at 220 rpm at 37° C. […] Cell culture was diluted to a 0.001 absorbance at 600 nm in 10% Mueller-Hinton II medium (MHII) and used to inoculate the bottom of MBEC™ assay plates (Innovotech, Edmonton, Canada). […] Following a 5 minute rinse in MHII, lids were exposed to BacTiter-Glo™ (Promega) and luminescence read in a microtiter plate reader (EnVision® Multilabel Plate Reader, Perkin Elmer, Waltham, USA). […]

[2] = test system: 509.5=PAO509 expressing triABC mutant biofilms; assay: MBEC biofilm killing assay (BacTiter-Glo), mutant 509.5; format: cell-based, Pseudomonas aeruginosa; conditions: triclosan 100 μM alone or with tobramycin 250 μg/mL; 6 hours treatment
Description: as §1
as §2, with “aeruginosa” for “aeruginosa fabI”

[3] = test system: 509=PAO1_Δ(mexAB-oprM)_Δ(mexCD-oprJ)_Δ(mexEF-oprN)_Δ(mexJK)_Δ(mexXY) mutant biofilms; assay: MBEC biofilm killing assay (BacTiter-Glo), efflux pump deletion mutant 509; format: cell-based, Pseudomonas aeruginosa; conditions: triclosan 100 μM alone or with tobramycin 250 μg/mL; 6 hours treatment
Description: as §1
as §2, with “aeruginosa” for “aeruginosa fabI”

SMILES: Oc1cc(Cl)ccc1Oc1ccc(Cl)cc1Cl [triclosan, Triclosan]
- susceptibility of fabI mutant biofilms [1]: triclosan resistance
- percentage of 509.5 mutant biofilms killed [2]: around 50%
- susceptibility of 509 mutant biofilms [3]: susceptible
